Patent US20260308102A1, “18F-FLUORINATED FATTY ACIDS AND USES THEREOF” (Ratio Therapeutics, Inc., priority 2022, published 2026)
Entries after “also recorded” stand apart in the source; their conditions may differ. One block for each compound: values may come before it.

How the values were obtained:
[1] = Stability in HCl and saline solution; type: physicochemical; settings: for stability in HCl: HCl lower than 3 M
[2] = Dynamic PET imaging (60 min) of butyrate analogues (Example 1); type: in vivo, wild type mice; settings: for in vivo behavior / biodistribution, comparison of isomers: 4-[^18F]FB vs 2-[^18F]FB
Experimental: FIG. 10 is a series of dynamic μPET/CT images depicting the biodistribution of 2-[^18F]FB and 4-[^18F]FB in wild type mice. Stable biodistribution was achieved after 45 minutes p.i.
Animals were anesthetized under 3% isoflurane in 02. […] Animals were allowed to recover from anesthesia and were carefully observed before moving them back to the holding facility for decay. Data was reconstructed as five 12-minute frames and as twelve 5-minute frames for analysis.

[3] = Static μPET/CT imaging at 45 min p.i. of short chain 18F-fatty acids and esters (Example 1)
Experimental: FIG. 1 is a series of Static Sagital and Coronal Maximum Intensity Projections (MIPs) μPET/CT images obtained at 45 minutes p.i. for the compounds studied (excluding palmitate) in normally fed animals. Imaging with ethyl-protected intermediates are also shown (e-).
Wild type immunocompetent animals were used, both for imaging and biodistribution experiments.
The activity was administered to the awake animals (n=2) via tail-vein injection (9.25-18.5 MBq, or 250-500 μCi) and placed back into their cages. At 35 minutes post injection (p.i.), animals were place in an acrylic enclosure under 4% isoflurane anesthesia in O2 for initial knockdown, then reduced to 2.5%. Once asleep, animals were placed in the imaging holder and a 5-minute CT was followed by a 15-minute static PET (approx. 45-60 min p.i., or 10-15 min after completion of anesthesia). As before, animals were allowed to recover from the anesthesia before returning to the holding facility for decay. When warranted, animals were studied with regular feeding and fasting for 6-12 hours to evaluate any difference in biodistribution.

[4] = Static μPET/CT imaging at 45 min p.i. of medium and long chain 18F-fatty acids (Example 2); settings: for brain uptake: includes earlier short chain data; for defluorination (bone uptake) / metabolic rate: static PET
Experimental: All animal experiments were approved by the Albert Einstein College of Medicine IACUC. Wild type immunocompetent animals were used for imaging. Feeding and water conditions were maintained throughout the study. Animals were never fasted.
The agent was administered to awake animals via tail-vein injection (9.25-18.5 MBq, or 250-500 μCi, n=2) and placed back into their cages. At 40 minutes post injection (henceforth p.i.), animals were place in an acrylic enclosure under 4% isoflurane anesthesia in O2 for initial knockdown, then reduced to 2.5%. Once asleep, animals were placed in the imaging holder and a 5-minute CT followed by a 15-minute static PET were performed (Approx. 45-60 min p.i.). As before, animals were allowed to recover from the anesthesia before returning to the holding facility for radiotracer decay. Images were analyzed by drawing regions of interest (ROIs) and quantifying the amount of tracer present as percent of injected activity per cubic centimeter (% IA/cc). Blood, urinary bladder and gut activity were determined by computer drawing of 2 mm diameter ROI spheres in the left cardiac ventricle, the urinary bladder and the areas of specific gut uptake, respectively. Brain, liver and kidney ROIs were drawn CT-aided and the radioactive contents were later quantified.

MCT1 [5] = settings: in vitro, Van Hée et al.; cited from earlier work
[6] = test system: monocarboxylate transporter (MCT); experiment: PET imaging of 2-[^18F]FP with lactate displacement and MCT inhibition by AZD-3965 co-injection; type: in vivo, wild type mice
Excerpt: FIG. 2 is a graph depicting PET-derived quantification of brain and pancreatic (“gut”) uptake of 2-[^18F]FP and 2-(L)-[^18F]FP under different conditions (n=2).
FIG. 12 is a collection of dynamic μPET/CT images that compare different imaging conditions including blocking with the MCT1 blocker AZD3965.
Further experiments to test the possibility of using 2-[^18F]FP and 2-(L)-[^18F]FP as a lactate surrogate, including co-injection with (L)Lactate, (D)Lactate, and AZD-3965 to produce displacement and monocarboxylate transporter (MCT) inhibition (respectively) were conducted and results can be observed in FIG. 2. The corresponding μPET/CT images can be found in the FIG. 12.
The unique characteristics of 2-[^18F]FP open many possibilities to study cancers and brain/CNS function and metabolism. As with 2-[^18F]FB the enantiomers have not been separated for either production or quality control. However, parametric production of 2-(L)-[^18F]FP was possible since the ethyl(2R)-2-{[(4-methylphenyl) sulfonyl]oxy}propanoate is commercially available. This compound's ability to resemble (L)-lactate has been contested in vitro, with confounding in vivo results. For comparison we co-injected 2-[^18F]FP separately with 0.5 and 5 mg/kg (L) and (D) sodium lactate (an increase of 5 and 50% respectively in homeostatic lactate circulation), and 5 mg/Kg of AZD-3965, an monocarboxylate transporter (MCT) 1 and 2 inhibitor (Ki(MCT1)=3 nM, Ki(MCT2)=20 nM) in the same animal model.

MCT1 [7] = settings: role: inhibitor; cited from earlier work
MCT2 = settings: role: inhibitor; cited from earlier work
[8] = cancer patients; cited from earlier work
[9] = co-injection with AZD-3965, 5 mg/Kg

- stability in HCl [1]: not stable
- stability in saline solution [1]: decomposed immediately
SMILES: CCOC(=O)CC(C)[18F] (stereo not drawn) [e-3-[^18F]FB, Ethyl 3-[^18F]Fluorobutyrate]

SMILES: CCC([18F])C(=O)O (racemic) [2-[^18F]FB, 2-[^18F]Fluorobutyrate]
- brain/central nervous system (CNS) uptake [2]: the highest of the studied series
- gut uptake [2]: seemingly specific gut uptake
- in vivo behavior / biodistribution, comparison of isomers [2]: behaved very differently in vivo
- brain uptake, fasted vs fed ([3]; fasted vs fed, 45 min p.i.): small reduction in brain uptake (not significant)
- circulatory activity, fasted vs fed ([3]; fasted vs fed, 45 min p.i.): slight increase in circulatory activity
- gut uptake, fasted vs fed ([3]; fasted vs fed, 45 min p.i.): modest reduction; also recorded: reduction in the aforementioned specifically located gut uptake
- metabolic activity / defluorination, fasted vs fed ([3]; fasted vs fed, 45 min p.i.): reduced defluorination; also recorded: slight decrease in metabolic rate
- brain/CNS uptake ([3]; static PET, 45 min p.i., fed): marked brain uptake
- brain uptake with or without isoflurane anesthesia and fasting ([3]; with or without isoflurane, with or without fasting): remained unchanged with or without isoflurane anesthesia, and with or without fasting
- brain uptake ([4]; 45 min p.i.): High brain uptake
- brain uptake ([4]; 45 min p.i., listed as 2-[^18F]Fluorobutyrate): peaking

- specific abdominal uptake ([4]; 45 min p.i.): not found
- defluorination (bone uptake) ([4]; 45 min p.i.): Almost no defluorination
SMILES: CCCCC([18F])C(=O)O (racemic) [2-[^18F]FC, 2-Fluorocaproate]
- brain uptake ([4]; 45 min p.i.): High brain uptake; also recorded: the longest substrate absorbed by the brain

SMILES: CC([18F])C(=O)O (racemic) [2-[^18F]FP, 2-[^18F]Fluoropropionate]
- MCT1-dependent accumulation (MCT1 [5]): does not accumulate in a MCT1-dependent manner
- abdominal uptake under different imaging conditions ([6]; different imaging conditions (fasting, lactate)): remained stable and not affected by the different imaging conditions
- average brain uptake, fasting or co-injection with (L)-lactate ([6]; fasting, co-injection with 5 mg/kg (L)-lactate, differences not significant): slight increase in average brain uptake
- apparent stability in vivo ([3]; no metabolite analysis performed): seems to be stable in vivo in the studied period; also recorded: high apparent probe stability in vivo
- blood circulation time ([3]; static PET, 45 min p.i.): decreased circulation times
- defluorination in vivo ([3]; static PET, 45 min p.i.): only minor defluorination was observed; also recorded: no defluorination was observed
- brain/CNS uptake ([3]; static PET, 45 min p.i., fed): maintained CNS uptake; also recorded: specific uptake in brain and the central nervous system; also recorded: marked brain uptake
- brain uptake ([4]; 45 min p.i.): High brain uptake

- stability in HCl [1]: not stable
- stability in saline solution [1]: decomposed immediately
SMILES: O=C(O)CC[18F] [3-[^18F]FP, 3-[^18F]Fluoropropionate]

- blood circulation time ([3]; static PET, 45 min p.i.): long circulation time
- defluorination in vivo ([3]; static PET, 45 min p.i.): without defluorination
- general biodistribution ([3]; static PET, 45 min p.i.): non-specificity
SMILES: CC(C)([18F])C(=O)O [2-[^18F]FIB, 2-[^18F]Fluoroisobutyrate]
- brain/CNS uptake ([3]; static PET, 45 min p.i., fed): marked brain uptake in contrast to their branched congener

SMILES: CCCCCCC([18F])C(=O)O (racemic) [2-[^18F]FCy, 2-Fluorocaprylate]
- specific abdominal uptake ([4]; 45 min p.i.): not found
- brain uptake ([4]; 45 min p.i.): significantly reduced
- defluorination (bone uptake) ([4]; 45 min p.i.): Almost no defluorination

- specific abdominal uptake ([4]; 45 min p.i.): not found
- defluorination (bone uptake) ([4]; 45 min p.i.): small bone uptake
SMILES: CCCCCC([18F])C(=O)O (racemic) [2-[^18F]FE, 2-Fluoroenanthate]
- brain uptake ([4]; 45 min p.i.): significantly reduced; also recorded: all brain uptake is stopped; also recorded: stops abruptly

- stability in HCl [1]: not stable
- stability in saline solution [1]: decomposed immediately
SMILES: CC([18F])CC(=O)O (stereo not drawn) [3-[^18F]FB, 3-[^18F]Fluorobutyrate]

SMILES: CCOC(=O)CC[18F] [e-3-[^18F]FP, Ethyl 3-[^18F]Fluoropropionate]
- stability in HCl [1]: not stable
- stability in saline solution [1]: decomposed immediately

SMILES: O=C(O)CCCCCC[18F] [7-[^18F]FE, 7-Fluoroenanthate]
- metabolic rate ([4]; 45 min p.i.): much faster metabolic rate than that of 6-[^18F]FC and 8-[^18F]FCy

SMILES: CCCC([18F])C(=O)O (racemic) [2-[^18F]FV, 2-Fluorovalerate]
- specific abdominal uptake ([4]; 45 min p.i.): evident
- brain uptake ([4]; 45 min p.i.): High brain uptake
- defluorination (bone uptake) ([4]; 45 min p.i.): small bone uptake

SMILES: O=C(O)C[18F] [[^18F]FA, [^18F]Fluoroacetate]
- blood circulation time ([3]; static PET, 45 min p.i.): decreased circulation times
- brain/CNS uptake ([3]; static PET, 45 min p.i., fed): maintained CNS uptake
- specific gut uptake ([3]; static PET, 45 min p.i., fed): highest uptake
- brain uptake ([4]; 45 min p.i.): High brain uptake

- blocking of gut uptake by AZD-3965 ([6]; co-injection with AZD-3965): selectively blocked
SMILES: Cc1[nH]nc(C(F)(F)F)c1Cc1sc2c(c1C(=O)N1C[C@](C)(O)CO1)c(=O)n(C)c(=O)n2C(C)C [AZD-3965]
- Ki (MCT1 [7]): 3 nM
- blocking of uptake / biodistribution by AZD-3965 [6, 9]: blocked the overall biodistribution of 2-[^18F]FP; also recorded: significant blocking of fatty acid uptake
- excretion with AZD-3965 co-injection [6, 9]: almost complete excretion; also recorded: increased excretion
- Ki (MCT2): 20 nM

SMILES: O=C(O)CCCC[18F] [5-[^18F]FV, 5-Fluorovalerate]
- metabolic rate ([4]; 45 min p.i.): much faster metabolic rate than that of 6-[^18F]FC and 8-[^18F]FCy

SMILES: CC(=O)O [[^11C]Acetate]
- uptake in comparison with [^18F]FDG [8]: mutually exclusive

SMILES: O=C(O)CCCCCCCCCCCCCCC[18F] [16-[^18F]FPalm, 16-[^18F]Fluorohexadecanoic acid]
- bright spot in liver / autopsy finding ([4]; one animal): a bright spot was found in one the animal's liver, but later autopsy did not revealed any interesting finding
- defluorination (bone uptake) ([4]; 45 min p.i.): faster for the 16-substituted compound, although much slower in contrast to its MCFA n-substituted congeners

- blood content ([4]; 45 min p.i.): reduced
- liver uptake ([4]; 45 min p.i.): predominant liver uptake
- specific abdominal uptake ([4]; 45 min p.i.): not found
- brain uptake ([4]; 45 min p.i.): significantly reduced
- defluorination (bone uptake) ([4]; 45 min p.i.): slightly higher defluorination rate
SMILES: CCCCCCCCCCCCCCC([18F])C(=O)O (racemic) [2-[^18F]FPalm, 2-[^18F]Fluorohexadecanoic acid]

SMILES: CCOC(=O)CCC[18F] [e-4-[^18F]FB, Ethyl 4-[^18F]Fluorobutyrate]
- blood circulation time ([3]; static PET, 45 min p.i.): slightly longer blood circulation
- general biodistribution ([3]; static PET, 45 min p.i.): almost identical biodistribution

SMILES: O=C(O)CCC[18F] [4-[^18F]FB, 4-[^18F]Fluorobutyrate]
- in vivo behavior / biodistribution, comparison of isomers [2]: behaved very differently in vivo
- circulatory activity, fasted vs fed ([3]; fasted vs fed, 45 min p.i.): slight increase in circulatory activity
- metabolic activity / defluorination, fasted vs fed ([3]; fasted vs fed, 45 min p.i.): reduced defluorination; also recorded: reduction in metabolic activity was especially noticeable; also recorded: slight decrease in metabolic rate

- blood circulation time ([3]; static PET, 45 min p.i.): slightly longer blood circulation
- general biodistribution ([3]; static PET, 45 min p.i.): almost identical biodistribution
SMILES: CCOC(=O)C([18F])CC (stereo not drawn) [e-2-[^18F]FB, Ethyl 2-[^18F]Fluorobutyrate]
